Source: patent publication US8802673B2, “Heterocyclic amine derivatives” (Hoffmann-La Roche Inc, priority 2011, dated 2014)

What was measured:
rat TAAR1 = rat TAAR1 (Rattus norvegicus (Rat), UniProt Q923Y9); experiment: Radioligand binding assay on rat TAAR1; conditions: rat TAAR1 (second value of the cell), HEK-293 membranes; read-out: Ki (μM) mouse/rat
Experimental: (§1) Construction of TAAR Expression Plasmids and Stably Transfected Cell Lines
(§2) For the construction of expression plasmids the coding sequences of human, rat and mouse TAAR 1 were amplified from genomic DNA essentially as described by Lindemann et al.. The Expand High Fidelity PCR System (Roche Diagnostics) was used with 1.5 mM Mg^2+ and purified PCR products were cloned into pCR2.1-TOPO cloning vector (Invitrogen) following the instructions of the manufacturer. PCR products were subcloned into the pIRESneo2 vector (BD Clontech, Palo Alto, Calif.), and expression vectors were sequence verified before introduction in cell lines.
(§3) HEK293 cells (ATCC #CRL-1573) were cultured essentially as described by Lindemann et al. (2005). For the generation of stably transfected cell lines HEK293 cells were transfected with the pIRESneo2 expression plasmids containing the TAAR coding sequences (described above) with Lipofectamine 2000 (Invitrogen) according to the instructions of the manufacturer, and 24 hrs post transfection the culture medium was supplemented with 1 mg/ml G418 (Sigma, Buchs, Switzerland). After a culture period of about 10 d clones were isolated, expanded and tested for responsiveness to trace amines (all compounds purchased from Sigma) with the cAMP Biotrak Enzyme immunoassay (EIA) System (Amersham) following the non-acetylation EIA procedure provided by the manufacturer.
Radioligand Binding Assay on Rat TAAR1
Membrane Preparation and Radioligand Binding
(§4) HEK-293 cells stably expressing rat TAAR1 were maintained at 37° C. and 5% CO2 in DMEM high glucose medium, containing fetal calf serum (10%, heat inactivated for 30 min at 56° C.), penicillin/streptomycin (1%), and 375 μg/ml geneticin (Gibco). Cells were released from culture flasks using trypsin/EDTA, harvested, washed twice with ice-cold PBS (without Ca^2+ and Mg^2+), pelleted at 1,000 rpm for 5 min at 4° C., frozen and stored at −80° C. Frozen pellets were suspended in 20 ml HEPES-NaOH (20 mM, pH 7.4) containing 10 mM EDTA and homogenized with a Polytron (PT 6000, Kinematica) at 14,000 rpm for 20 s. The homogenate was centrifuged at 48,000×g for 30 min at 4° C. Subsequently, the supernatant was removed and discarded, and the pellet resuspended in 20 ml HEPES-NaOH (20 mM, pH 7.4) containing 0.1 mM EDTA using the Polytron (20 s at 14,000 rpm). This procedure was repeated and the final pellet resuspended in HEPES-NaOH containing 0.1 mM EDTA and homogenized using the Polytron. Typically, aliquots of 2 ml membrane portions were stored at −80° C. With each new membrane batch the dissociation constant (Kd) was determined via a saturation curve. […] All compounds were tested at a broad range of concentrations (10 pM to 10 μM) in duplicates. […] The 96 deep well plates were incubated for 1 hr at 4° C. Incubations were terminated by rapid filtration through Unifilter-96 plates (Packard Instrument Company) and glass filters GF/C (Perkin Elmer) presoaked for 1 hr in polyethylenimine (0.3%) and washed 3 times with 1 ml of cold binding buffer. After addition of 45 μl of Microscint 40 (PerkinElmer) the Unifilter-96 plate was sealed and after 1 hr the ratioactivity counted using a TopCount Microplate Scintillation Counter (Packard Instrument Company).

mouse TAAR1 = mouse TAAR1 (Mus musculus (Mouse), UniProt Q923Y8); experiment: Radioligand binding assay on mouse TAAR1; conditions: mouse TAAR1 (first value of the cell), HEK-293 membranes; read-out: Ki (μM) mouse/rat
Sequence of mouse TAAR1 (Q923Y8 whole entry): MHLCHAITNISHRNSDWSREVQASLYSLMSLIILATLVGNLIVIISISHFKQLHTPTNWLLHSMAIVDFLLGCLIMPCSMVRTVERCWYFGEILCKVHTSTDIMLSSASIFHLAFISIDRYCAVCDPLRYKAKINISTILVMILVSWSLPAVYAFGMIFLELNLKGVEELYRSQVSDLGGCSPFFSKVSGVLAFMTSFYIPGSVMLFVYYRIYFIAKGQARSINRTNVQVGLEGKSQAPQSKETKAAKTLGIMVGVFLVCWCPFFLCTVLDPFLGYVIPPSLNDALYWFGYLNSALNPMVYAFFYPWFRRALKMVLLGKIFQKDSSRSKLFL
Experimental: as §1, §2, §3
Radioligand Binding Assay on Mouse TAAR1
Membrane Preparation and Radioligand Binding.
as §4, with “expressing mouse” for “expressing rat”

Sequence of rat TAAR1 (Q923Y9 whole entry): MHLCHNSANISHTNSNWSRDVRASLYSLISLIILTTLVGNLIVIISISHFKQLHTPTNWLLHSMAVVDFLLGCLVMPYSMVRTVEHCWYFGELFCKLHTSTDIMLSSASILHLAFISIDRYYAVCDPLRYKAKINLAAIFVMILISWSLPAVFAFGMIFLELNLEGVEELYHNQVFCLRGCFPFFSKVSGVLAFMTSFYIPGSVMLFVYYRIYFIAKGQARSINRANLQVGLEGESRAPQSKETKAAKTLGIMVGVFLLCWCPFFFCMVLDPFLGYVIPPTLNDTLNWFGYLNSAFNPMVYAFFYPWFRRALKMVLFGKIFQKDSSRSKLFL

| Ki (rat TAAR1) | Ki (mouse TAAR1) | SMILES |
| --- | --- | --- |
| 0.0056 µM | 0.0029 µM | CCc1cnc(Nc2ccc(C3CNCCO3)cc2F)nc1 (racemic) [Example 97, (RS)-5-Ethyl-N-(2-fluoro-4-(morpholin-2-yl)phenyl)pyrimidin-2-amine] |
| 0.0364 µM | 0.0058 µM | Cc1cc(C2CNCCO2)cnc1Nc1ccc(Br)cn1 (racemic) [Example 120, (RS)—N-(5-Bromopyridin-2-yl)-3-methyl-5-(morpholin-2-yl)pyridin-2-amine] |
| 0.0096 µM | 0.0058 µM | Fc1cc(C2CNCCO2)ccc1Nc1ncc(C(F)(F)F)cn1 (racemic) [Example 121, (RS)-(2-Fluoro-4-morpholin-2-yl-phenyl)-(5-trifluoromethyl-pyrimidin-2-yl)-amine] |
| 5.25 µM | 0.0386 µM | Cn1ccc(Nc2ccc(C3CNCCO3)cc2)n1 (racemic) [Example 140, (RS)-(1-Methyl-1H-pyrazol-3-yl)-(4-morpholin-2-yl-phenyl)-amine] |
| 0.284 µM | 0.418 µM | Cn1cc(Br)c(Nc2ccc(C3CNCCO3)cc2)n1 (racemic) [Example 143, (RS)-(4-Bromo-1-methyl-1H-pyrazol-3-yl)-(4-morpholin-2-yl-phenyl)-amine] |
| 0.14 µM | 0.0046 µM | c1cc(C2CNCCO2)ccc1Nc1ccn(CC2CC2)n1 (racemic) [Example 146, (RS)-(1-Cyclopropylmethyl-1H-pyrazol-3-yl)-(4-morpholin-2-yl-phenyl)-amine] |
| 0.149 µM | 0.0134 µM | FC(F)Cn1ccc(Nc2ccc(C3CNCCO3)cc2)n1 (racemic) [Example 150, (RS)-[1-(2,2-Difluoro-ethyl)-1H-pyrazol-3-yl]-(4-morpholin-2-yl-phenyl)-amine] |
| 0.259 µM | 0.0055 µM | COc1cnc(Nc2ccc([C@H]3CNCCO3)cc2)nc1 [Example 12, (5-Methoxy-pyrimidin-2-yl)-((S)-4-morpholin-2-yl-phenyl)-amine] |
| 0.0131 µM | 0.0017 µM | c1cc([C@H]2CNCCO2)ccc1Nc1ncc(C2CC2)cn1 [Example 17, (5-Cyclopropyl-pyrimidin-2-yl)-((S)-4-morpholin-2-yl-phenyl)-amine] |
| 0.0236 µM | 0.0056 µM | FC(F)(F)c1cnc(Nc2ccc([C@H]3CNCCO3)cc2)nc1 [Example 19, ((S)-4-Morpholin-2-yl-phenyl)-(5-trifluoromethyl-pyrimidin-2-yl)-amine] |
| 0.468 µM | 0.0375 µM | Cc1ccc(CNc2ccc([C@H]3CNCCO3)cc2)cc1 [Example 22, (4-Methyl-benzyl)-((S)-4-morpholin-2-yl-phenyl)-amine] |
| 0.149 µM | 0.0119 µM | FC(F)(F)c1ccc(CNc2ccc([C@H]3CNCCO3)cc2)cc1 [Example 24, ((S)-4-Morpholin-2-yl-phenyl)-(4-trifluoromethyl-benzyl)-amine] |
| 0.0705 µM | 0.0124 µM | FC(F)(F)Oc1ccc(CNc2ccc([C@H]3CNCCO3)cc2)cc1 [Example 25, ((S)-4-Morpholin-2-yl-phenyl)-(4-trifluoromethoxy-benzyl)-amine] |
| 0.0083 µM | 0.002 µM | Clc1ccc2nc(Nc3ccc([C@H]4CNCCO4)cc3)sc2c1 [Example 26, (6-Chloro-benzothiazol-2-yl)-((S)-4-morpholin-2-yl-phenyl)-amine] |
| 0.808 µM | 0.0438 µM | Brc1ccc(CNc2ccc([C@H]3CNCCO3)cc2)nc1 [Example 27, (5-Bromo-pyridin-2-ylmethyl)-((S)-4-morpholin-2-yl-phenyl)-amine] |
| 0.155 µM | 0.0042 µM | CCOc1cnc(Nc2ccc([C@H]3CNCCO3)cc2)nc1 [Example 29, (5-Ethoxy-pyrimidin-2-yl)-((S)-4-morpholin-2-yl-phenyl)-amine] |

Further lines, the compound ahead of its results:

| SMILES | Ki (rat TAAR1) | Ki (mouse TAAR1) |
| --- | --- | --- |
| CCOc1cnc(Nc2ccc(C3CNCCO3)cc2F)nc1 (racemic) [Example 100, (RS)-(5-Ethoxy-pyrimidin-2-yl)-(2-fluoro-4-morpholin-2-yl-phenyl)-amine] | 0.0164 µM | 0.0053 µM |
| CCCc1cnc(Nc2ccc(C3CNCCO3)cc2F)nc1 (racemic) [Example 101, (RS)-(2-Fluoro-4-morpholin-2-yl-phenyl)-(5-propyl-pyrimidin-2-yl)-amine] | 0.0041 µM | 0.0032 µM |
| Brc1ccc(Nc2ccc([C@H]3CNCCO3)cc2)nc1 [Example 10, (S)-5-Bromo-N-(4-(morpholin-2-yl)phenyl)pyridin-2-amine] | 0.0337 µM | 0.0015 µM |
| FC(F)(F)c1ccc(Nc2ccc([C@H]3CNCCO3)cc2)nc1 [Example 11, (S)—N-(4-(Morpholin-2-yl)phenyl)-5-(trifluoromethyl)pyridin-2-amine] | 0.0233 µM | 0.0015 µM |
| c1ccc(CCNc2ccc([C@H]3CNCCO3)cc2)cc1 [Example 13, ((S)-4-Morpholin-2-yl-phenyl)-phenethyl-amine] | 0.108 µM | 0.0266 µM |
| Fc1cnc(Nc2ccc([C@H]3CNCCO3)cc2)nc1 [Example 14, (5-Fluoro-pyrimidin-2-yl)-((S)-4-morpholin-2-yl-phenyl)-amine] | 0.504 µM | 0.0122 µM |
| CCc1cnc(Nc2ccc([C@H]3CNCCO3)cc2)nc1 [Example 15, (5-Ethyl-pyrimidin-2-yl)-((S)-4-morpholin-2-yl-phenyl)-amine] | 0.0466 µM | 0.0028 µM |
| N#Cc1cnc(Nc2ccc([C@H]3CNCCO3)cc2)nc1 [Example 16, 2-((S)-4-Morpholin-2-yl-phenylamino)-pyrimidine-5-carbonitrile] | 0.448 µM | 0.0276 µM |
| Cc1cnc(Nc2ccc([C@H]3CNCCO3)cc2)nc1 [Example 18, (5-Methyl-pyrimidin-2-yl)-((S)-4-morpholin-2-yl-phenyl)-amine] | 0.313 µM | 0.0054 µM |
| COc1ccc(CNc2ccc([C@H]3CNCCO3)cc2)cc1 [Example 20, (4-Methoxy-benzyl)-((S)-4-morpholin-2-yl-phenyl)-amine] | 0.764 µM | 0.0453 µM |
| CCCc1cnc(Nc2ccc([C@H]3CNCCO3)cc2)nc1 [Example 21, ((S)-4-Morpholin-2-yl-phenyl)-(5-propyl-pyrimidin-2-yl)-amine] | 0.0245 µM | 0.002 µM |
| N#Cc1ccc(CNc2ccc([C@H]3CNCCO3)cc2)cc1 [Example 23, 4-[((S)-4-Morpholin-2-yl-phenylamino)-methyl]-benzonitrile] | 1.64 µM | 0.0514 µM |
| COc1cccc(CNc2ccc([C@H]3CNCCO3)cc2)n1 [Example 28, (6-Methoxy-pyridin-2-ylmethyl)-((S)-4-morpholin-2-yl-phenyl)-amine] | 0.561 µM | 0.276 µM |
